From patent publication US7045528B2, “Benzofused heterozryl amide derivatives of thienopyridines useful as therapeutic agents, pharmaceutical compositions including the same, and methods for their use” (Agouron Pharmaceuticals, Inc., priority 2002, dated 2006)

How the values were obtained:
[1] = target: T1, unphosphorylated VEGF-R2Δ50 (FLVK) (Homo sapiens, UniProt P35968, DEL940-989/E990V); assay: VEGF-R2 coupled spectrophotometric assay, unphosphorylated VEGF-R2Δ50 (FLVK); assay type: biochemical; settings: unphosphorylated VEGF-R2Δ50; for inhibition at 0.05 µM: 50 nM compound, read-out: FLVK (% inh @ 50 nM)
T1 construct: VEGF-R2Δ50 contains residues 806–939 and 990–1171; made in house; host or cells: baculovirus/insect cell system
T1 sequence (P35968 with tags, fused parts or gaps DEL940-989/E990V limits assumed): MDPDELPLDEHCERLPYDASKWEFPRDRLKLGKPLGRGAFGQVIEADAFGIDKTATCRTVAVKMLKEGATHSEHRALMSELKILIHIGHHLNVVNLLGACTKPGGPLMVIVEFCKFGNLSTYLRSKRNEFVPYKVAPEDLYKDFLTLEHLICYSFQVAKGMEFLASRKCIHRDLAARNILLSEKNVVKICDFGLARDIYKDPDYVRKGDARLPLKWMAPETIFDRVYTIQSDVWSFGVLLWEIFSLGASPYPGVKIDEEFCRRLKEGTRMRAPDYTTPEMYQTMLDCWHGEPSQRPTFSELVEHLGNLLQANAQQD
Outline: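 Baculovirus-expressed human VEGF-R2Δ50 (kinase insert partly deleted, E990V), unphosphorylated form; ADP production coupled via PK/LDH to NADH oxidation, read at 340 nm. 20 mM poly(E4Y1), 3 mM ATP, 60 mM MgCl2, 2 mM MnCl2, 200 mM HEPES pH 7.5; 5–40 nM enzyme. Ki from Morrison tight-binding fit.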

Huvec = assay: bFGF Huvec proliferation; assay type: cell-based, human; settings: Homo sapiens, HUVEC
PDGFRβ = target: T2, PDGFRβ (Homo sapiens, UniProt P09619); assay: PAE-PDGFRβ phosphorylation in PAE-PDGFRB cells assay; assay type: cell-based; settings: PAE cells overexpressing human PDGFRβ, PDGF-BB stimulated; read-out: PAE PDGFR autophos IC50 (nM) AVG
T2 construct: expressed in transfected cells; host or cells: porcine aorta endothelial (PAE)-PDGFRβ cells
T2 sequence (P09619 33-1106): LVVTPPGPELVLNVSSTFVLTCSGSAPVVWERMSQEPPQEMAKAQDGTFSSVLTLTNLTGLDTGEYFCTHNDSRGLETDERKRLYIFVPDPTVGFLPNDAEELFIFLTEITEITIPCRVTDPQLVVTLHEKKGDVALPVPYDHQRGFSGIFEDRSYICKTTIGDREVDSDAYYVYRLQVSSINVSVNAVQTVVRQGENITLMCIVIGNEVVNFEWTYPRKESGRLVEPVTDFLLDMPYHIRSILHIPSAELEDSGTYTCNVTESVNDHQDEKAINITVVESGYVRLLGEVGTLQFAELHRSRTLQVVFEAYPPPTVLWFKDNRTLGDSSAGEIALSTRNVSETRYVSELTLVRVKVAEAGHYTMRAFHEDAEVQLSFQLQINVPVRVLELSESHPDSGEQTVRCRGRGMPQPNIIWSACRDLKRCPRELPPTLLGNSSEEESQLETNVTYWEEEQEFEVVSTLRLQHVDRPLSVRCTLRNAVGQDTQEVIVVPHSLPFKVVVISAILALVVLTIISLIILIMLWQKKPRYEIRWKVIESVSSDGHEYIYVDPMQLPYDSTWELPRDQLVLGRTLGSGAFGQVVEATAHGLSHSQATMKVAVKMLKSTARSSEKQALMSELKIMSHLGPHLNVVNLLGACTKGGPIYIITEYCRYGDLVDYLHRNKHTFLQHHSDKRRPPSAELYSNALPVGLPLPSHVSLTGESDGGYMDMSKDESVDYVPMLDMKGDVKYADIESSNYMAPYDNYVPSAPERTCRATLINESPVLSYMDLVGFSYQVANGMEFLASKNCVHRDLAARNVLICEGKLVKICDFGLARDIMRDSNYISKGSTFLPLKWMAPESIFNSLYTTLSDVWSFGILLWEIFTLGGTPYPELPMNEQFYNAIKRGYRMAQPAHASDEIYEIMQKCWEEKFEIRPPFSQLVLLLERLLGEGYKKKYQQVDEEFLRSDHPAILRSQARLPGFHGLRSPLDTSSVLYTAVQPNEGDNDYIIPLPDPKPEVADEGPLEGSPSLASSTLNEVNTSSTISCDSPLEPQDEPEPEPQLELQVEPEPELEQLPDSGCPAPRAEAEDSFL
Outline: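 PAE cells overexpressing human PDGFRβ, serum-starved 16 h (0.1% FBS), were given compound for 1 h at 37 °C (0.5% DMSO) and then stimulated with 1 μg/mL PDGF-BB plus 2 mM Na3VO4 for 8 min. Receptor autophosphorylation was read by capture ELISA (HRP-PY20, TMB, 450 nm); IC50 from 4-parameter fit.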

[2] = test system: human umbilical vein endothelial cells (HUVEC); assay: HUVEC+VEGF proliferation assay; assay type: cell-based; settings: Homo sapiens, HUVEC; VEGF 6 ng/mL, 72 h, MTT
Protocol: HUVEC+VEGF Proliferation Assay
This assay determines the ability of a test compound to inhibit the growth factor-stimulated proliferation of human umbilical vein endothelial cells (“HUVEC”). HUVEC cells (passage 3–4; Clonetics, Corp.) were thawed into EGM2 culture medium (Clonetics Corp) in T75 flasks. Fresh EGM2 medium was added to the flasks 24 hours later. Four or five days later, cells were exposed to another culture medium (F12K medium supplemented with 10% fetal bovine serum (FBS), 60 μg/mL endothelial cell growth supplement (ECGS), and 0.1 mg/mL heparin). Exponentially-growing HUVEC cells were used in experiments thereafter. Ten to twelve thousand HUVEC cells were plated in 96-well dishes in 100 μl of rich, culture medium (described above). The cells were allowed to attach for 24 hours in this medium. The medium was then removed by aspiration and 105 μl of starvation media (F12K+1% FBS) was added to each well. After 24 hours, 15 μl of test agent dissolved in 1% DMSO in starvation medium or this vehicle alone was added into each treatment well; the final DMSO concentration was 0.1%. One hour later, 30 μl of VEGF (30 ng/mL) in starvation media was added to all wells except those containing untreated controls; the final VEGF concentration was 6 ng/mL. Cellular proliferation was quantified 72 hours later by MTT dye reduction, at which time cells were exposed for 4 hours MTT (Promega Corp.). Dye reduction was stopped by addition of a stop solution (Promega Corp.) and absorbance at 595 nm was determined on a 96-well spectrophotometer plate reader.

| Structure (SMILES) | inhibition at 0.05 µM [1] | Ki [1] | IC50 (Huvec) | IC50 (PDGFRβ) | IC50 [2] |
| --- | --- | --- | --- | --- | --- |
| CO[C@@H]1CCN(C(=O)c2cc3nccc(Oc4ccc5c(C(=O)NC6CC6)c(C)sc5c4)c3s2)C1 [Example 11, 6-[(2-{[(3R)-3-methoxypyrrolidin-1-yl]carbonyl}thieno[3,2-b]pyridin-7-yl)oxy]-2-methylbenzo[b]thiophene-3-carboxylic acid cyclopropylamide] | 93% | 0.492 nM | 40 nM | 104 nM | 0.56 nM |
| CNC(=O)c1c(C)n(C)c2cc(Oc3ccnc4cc(C(=O)N5CCC5)sc34)ccc12 [Example 25] | 70% | 4.08 nM | 7460 nM | 12 nM | 0.45 nM |
| CNC(=O)c1c(C)n(C)c2cc(Oc3ccnc4cc(-c5nc(CO)cs5)sc34)ccc12 [Example 26, 1,2-Dimethyl-6-(2-[4-(hydroxymethyl)thiazol-2-yl]thieno[3,2-b]pyridin-7-yloxy)-1H-indole-3-carboxylic acid methylamide] | 83% | 3.66 nM | 2230 nM | 13 nM | 0.74 nM |
| CNC(=O)c1c(C)n(C)c2cc(Oc3ccnc4cc(C(=O)N5CCCC5)sc34)ccc12 [Example 28, 1,2-Dimethyl-6-[2-(pyrrolidine-1-carbonyl)-thieno[3,2-b]pyridin-7-yloxy]-1H-indole-3-carboxylic acid methylamide] | 78% | 2.8 nM | 462 nM | 15 nM | 0.272 nM |
| CNC(=O)c1c(C)n(C)c2cc(Oc3ccnc4cc(C(=O)N5CC(O)C5)sc34)ccc12 [Example 30, 6-[2-(3-Hydroxy-azetidine-1-carbonyl)-thieno[3,2-b]pyridin-7-yloxy]-1,2-dimethyl-1H-indole-3-carboxylic acid methylamide] | 63% | 6 nM | 10000 nM | 74 nM | 33.6 nM |
| CNC(=O)c1c(C)n(C)c2cc(Oc3ccnc4cc(C(=O)N(C)C)sc34)ccc12 [Example 33, 7-({1,2-Dimethyl-3-[(methylamino)carbonyl]-1H-indol-6-yl}oxy)-N,N-dimethylthieno[3,2-b]pyridine-2-carboxamide] | 61% | 11.5 nM | 10000 nM | 63 nM | 10 nM |
| CNC(=O)c1c(C)n(C)c2cc(Oc3ccnc4cc(-c5ccncc5)sc34)ccc12 [Example 38, 1,2-Dimethyl-6-(2-pyridin-4-yl-thieno[3,2-b]pyridin-7-yloxy)-1H-indole-3-carboxylic acid methylamide] | 60% | 6.12 nM | 10000 nM | 12.3 nM | 27 nM |
| CNC(=O)c1c(C)n(C)c2cc(Oc3ccnc4cc(-c5nc(C(C)(C)O)cs5)sc34)ccc12 [Example 40, 6-{2-[4(1-Hydroxy-1-methyl-ethyl)-thiazol-2-yl]-thieno[3,2-b]pyridin-7-yloxy}-1,2-dimethyl-1H-indole-3-carboxylic acid methylamide] | 77% | 2.95 nM | 7800 nM | 24.2 nM | 1.12 nM |
| CNC(=O)c1c(C)n(C)c2cc(Oc3ccnc4cc(-c5nccs5)sc34)ccc12 [Example 41, 1,2-Dimethyl-6-(2-thiazol-2-yl-thieno[3,2-b]pyridin-7-yloxy)-1H-indole-3-carboxylic acid methylamide] | 71% | 3.3 nM | 1220 nM | 22.1 nM | 3.7 nM |
| CNC(=O)c1c(C)n(C)c2cc(Oc3ccnc4cc(C(=O)N5CCC(CNC(=O)OC(C)(C)C)C5)sc34)ccc12 (stereo not drawn) [Example 44, tert-Butyl (1-{[7-({1,2-dimethyl-3-[(methylamino)carbonyl]-1H-indol-6-yl}oxy)thieno[3,2-b]pyridin-2-yl]carbonyl}pyrrolidin-3-yl)methylcarbamate] | 87% | 1.2 nM | 6040 nM | 21.3 nM | 1.78 nM |
| CNC(=O)c1c(C)n(C)c2cc(Oc3ccnc4cc(-c5ccc(OC)cn5)sc34)ccc12 [Example 48, 6-[2-(5-Methoxy-pyridin-2-yl)-thieno[3,2-b]pyridin-7-yloxy]-1,2-dimethyl-1H-indole-3-carboxylic acid methylamide] | 91% | – | 239 nM | 21 nM | 0.94 nM |
| Cc1c(C(=O)NC2CC2)c2ccc(Oc3ccnc4cc(C(=O)N5CC[C@@H](O)C5)sc34)cc2n1C [Example 53, 6-[2-((R)-3-Hydroxy-pyrrolidine-1-carbonyl)-thieno[3,2-b]pyridin-7-yloxy]-1,2-dimethyl-1H-indole-3-carboxylic acid cyclopropylamide] | 93% | 1.07 nM | 7230 nM | 229 nM | 1.8 nM |
| Cc1c(C(=O)NC2CC2)c2ccc(Oc3ccnc4cc(C(=O)N5CCC[C@H]5CO)sc34)cc2n1C [Example 54, N-Cyclopropyl-6-[(2-{[(2S)-2-(hydroxymethyl)pyrrolidin-1-yl]carbonyl}thieno[3,2-b]pyridin-7-yl)oxy]-1,2-dimethyl-1H-indole-3-carboxamide] | 89% | 1.71 nM | 10000 nM | 133 nM | 1.8 nM |
| Cc1c(C(=O)NCC2CC2)c2ccc(Oc3ccnc4cc(C(=O)N5CC[C@@H](O)C5)sc34)cc2n1C [Example 56] | 60% | 3.8 nM | 10000 nM | 109 nM | 22 nM |
| CCCNC(=O)c1c(C)n(C)c2cc(Oc3ccnc4cc(C(=O)N5CCC[C@H]5CO)sc34)ccc12 [Example 58, 6-(2-[2-(S)Hydroxymethyl-pyrrolidine-1-carbonyl]thieno[3,2-b]pyridin-7-yloxy)-1,2-dimethyl-1H-indole-3-carboxylic acid propylamide] | 55% | 7.59 nM | 7830 nM | 124 nM | 3.65 nM |
| CCCNC(=O)c1c(C)n(C)c2cc(Oc3ccnc4cc(C(=O)N5CC[C@@H](O)C5)sc34)ccc12 [Example 59, 6-[2-(3-Hydroxy-pyrrolidine-1-carbonyl)-thieno[3,2-b]pyridin-7-yloxy]-1,2-dimethyl-3H-indole-3-carboxylic acid propylamide] | 81% | 1.38 nM | 1160 nM | 115 nM | 0.045 nM |
| CCCNC(=O)c1c(C)n(C)c2cc(Oc3ccnc4cc(-c5nccs5)sc34)ccc12 [Example 60, 1,2-Dimethyl-6-(2-thiazol-2-yl-thieno[3,2-b]pyridin-7-yloxy)1H-indole-3-carboxylic acid propylamide] | 81% | 2.17 nM | 1700 nM | 38.3 nM | 1.34 nM |
| Cc1c(C(=O)NCCCO)c2ccc(Oc3ccnc4cc(C(=O)N5CCC5)sc34)cc2n1C [Example 63, 6-[2-(Azetidine-1-carbonyl)-thieno[3,2-b]pyridin-7-yloxy}-1,2-dimethyl-1H-indole-3-carboxylic acid (3-hydroxy-propyl)-amide] | 67% | 9.33 nM | 10000 nM | 84 nM | 10 nM |
| Cc1c(C(=O)NCCCO)c2ccc(Oc3ccnc4cc(C(=O)N5CCCC5)sc34)cc2n1C [Example 65, 1,2-Dimethyl-6-[2-(pyrrolidine-1-carbonyl)-thieno[3,2-b]pyridin-7-yloxy]-1H-indole-3-carboxylic acid (3-hydroxy-propyl)-amide] | 65% | 7.97 nM | 10000 nM | 59 nM | 10 nM |
| Cc1c(C(=O)Nc2ccccn2)c2ccc(Oc3ccnc4cc(-c5nccn5C)sc34)cc2n1C [Example 69, 1,2-Dimethyl-6-[2-(1-methyl-1H-imidazol-2-yl)-thieno[3,2-b]pyridin-7-yloxy]-1H-indole-3-carboxylic acid pyridin-2-ylamide] | 95% | 0.3 nM | 4310 nM | 6.52 nM | 0.57 nM |
